2 compounds from US20170166928A1, “Compositions And Methods For Genetically Modifying Yeast” (priority 2015, published 2017) can be followed below.

This assay has as its system Candida albicans. As to the kind of experiment: Growth of Candida albicans strains in medium with drug. The assay is classed as cell-based. As to conditions: for drug resistance of cdr1/cdr1 cdr2/cdr2 double mutants versus parental isolate: clinical isolate Can90; for doubling time: liquid growth in 1.2 μg/ml fluconazole. The protocol:
Candida albicans strain SC5314 was used for all experiments unless otherwise noted. The fluconazole-resistant C. albicans strain Can90 was kindly provided by the Massachusetts General Hospital. Yeast strains were grown in YPD (1% Bacto Yeast extract, 2% Bacto Peptone, 2% Dextrose) medium supplemented with 0.27 mM uridine, and selected using Nourseothricin (Nat) at a concentration of 200 μg/ml. Transformations were performed using the lithium acetate method (27). Flipout of Nat^R gene from Cas9-expressing Duet vector pV1025 was done by induction of flippase by growth in Difco yeast carbon base with bovine serum albumin, and screening for isolates that had lost the Nat^R gene. Filamentation experiments were performed with yeast grown overnight in liquid YPD, washed twice in RPMI-1640 medium (Cat #22400-105, Life Technologies) supplemented with 10% fetal bovine serum, and incubated in RPMI+10% FBS for the indicated time at a starting OD of 0.1. Growth curves were performed in a clear-bottomed 96-well plate, incubated with shaking at 30° C. in a Tecan Saphire^2 plate reader, reading optical density at 600 nm every 5 minutes for the indicated time. YPD-grown overnight yeast cultures were used to inoculate these wells to an initial OD of 0.05. CRISPR-mutagenized loci were verified by sequence analysis of PCR products amplified from the target locus and by restriction digest where applicable.

As for `C[C@@H]1C[C@@H]([C@H](O)CC2CC(=O)NC(=O)C2)C(=O)[C@@H](C)C1` [cycloheximide], the “drug resistance of cdr1/cdr1 cdr2/cdr2 double mutants versus parental isolate” value was “no longer displayed the hyper-resistance”.
Take `OC(Cn1cncn1)(Cn1cncn1)c1ccc(F)cc1F` [fluconazole]: the “drug resistance of cdr1/cdr1 cdr2/cdr2 double mutants versus parental isolate” value is “no longer displayed the hyper-resistance”. Where the note is “SC5314 snf1-K81R”, the “drug sensitivity of snf1-K81R strain” value was “hypersensitive”. This compound yielded a doubling time (ade2 CDR1 CDR2 strain) of 6 h. Under “ade2 cdr1 cdr2 mutant”, this compound showed a doubling time of 12 h.
